Measured values published in patent US5770410A, “Chiral synthesis with modified enzymes” (Genzyme Corporation, priority 1992, dated 1998).

Tests used:
Format in all cases: biochemical
[1] = biological target: T1, Bacillus stearothermophilus lactate dehydrogenase loop exchange mutant SL1 (short loop) (Geobacillus stearothermophilus, UniProt P00344, A222G/A223G/C81T, form not given); assay: Steady-state kinetics, NADH-dependent reduction of 2-oxo acids (A340); conditions: 25° C., pH 6
T1 construct: purified; +/- FBP
T1 sequence (P00344 whole entry C81T/A222G/A223G, form open): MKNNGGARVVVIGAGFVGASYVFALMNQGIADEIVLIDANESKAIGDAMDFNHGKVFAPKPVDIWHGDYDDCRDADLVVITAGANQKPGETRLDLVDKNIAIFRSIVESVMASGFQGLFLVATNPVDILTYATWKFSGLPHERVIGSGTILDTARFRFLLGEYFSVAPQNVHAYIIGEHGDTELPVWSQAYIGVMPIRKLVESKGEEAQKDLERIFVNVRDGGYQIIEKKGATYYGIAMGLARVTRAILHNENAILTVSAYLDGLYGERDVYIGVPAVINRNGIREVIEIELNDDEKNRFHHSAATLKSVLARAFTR
Description: (§1) Each pair of overlapping oligonucleotides (20 μM of each) were subjected to 30 cycles of annealing and extension (94° C. for 1 minute, cool to 45° C. for 2 minutes, 45° C. for 1 minute, heat to 72° C. in 1 minute, 72° C. for 1 minute in 50 μl containing 0.05M KCl , 10 mM Tris pH 8.3, 1.5 mM MgCl2, 0.01% gelatin), 200 μM of each dNTP and 2.5 units TAQ DNA polymerase). The double-stranded DNA product was purified and then cut with SacII and XbaI before ligating it into the plasmid pLDHrs cut with the same enzymes. The ligated products were restricted with MluI to cleave wild-type plasmid pLDHrs.
(§2) Overnight cultures (11) were centrifuged and the packed cells were resuspended in 50 mM triethanolamine, pH 6.0. The cells were sonicated and the debris was removed by centrifugation. The protein in the supernatant was precipitated by the addition of 65% ammonium sulphate. The precipitate was spun down and resuspended in 50 mM triethanolamine, pH 6.0 and dialysed against the same buffer. After dialysis, NADH and FBP were added to the protein to final concentrations of 5 mM and 10 mM before loading onto an oxamate Sepharose column which had been pre-equilibrated with 50 mM triethanoloamine, pH 6.0, 3 mM NADH and 5 mM FBP. After washing off unbound protein with column buffer mutant LDH was eluted with 50 mM triethanolamine, pH 9.0, 0.3 M NaCl. The elutant was precipitated with 65% ammonium sulphate and then resuspended in and dialysed against 50 mM triethanolamine, pH 7.5. The protein was then loaded onto a Q-Sepharose Fast Flow column and eluted with a salt gradient. LDH eluted at a concentration of 0.25M NaCl. For the double glycine mutant enzyme, the first chromatography procedure with oxamate Sepharose was replaced by chromatography on Blue Sepharose -F3GA, otherwise the procedure was essentially the same. All proteins were judged to be greater than 98% pure from the intensity of Coomassie blue staining on an SDS Phast gel (Pharmacia). The yield of protein was usually 0.2 g/l of original broth.
(§3) Steady-state measurements were made by following the reduction in absorbance at 340 nm in the NADH/NAD^+ conversion. All assays were at 25° C. in the buffer Bis-Tris, pH 6, (20 mM), containing KC1 (50 mM) and when used fructose-1,6-bisphosphate at 5 mM. Protein concentration was determined from the absorbance at 280 nm using the value of 0.91 for 1 mg/ml protein in 1 cm path and an Mr of 33,000.
(§4) The specific substrates used in the evaluations are shown in the left column of Table 4. In Table 4, "235/6GG" denotes the mutant enzyme formed by substituting GlyGly for AlaAla at the 235-236 positions of the enzyme (Wilks et al., Biochemistry 1990, 29, 8587-8591), and "WTrs" denotes a mutant derived from the wild-type strain as shown in FIG. 1 of Wilks et al., Biochemistry 1992, 31, 7802-7806.

[2] = biological target: T2, Bacillus stearothermophilus lactate dehydrogenase loop exchange mutant SL2 (short loop) (Geobacillus stearothermophilus, UniProt P00344, A222G/A223G/C81T, form not given); assay: as above; conditions: 25° C., pH 6
T2 construct: purified; +/- FBP
T2 sequence (P00344 whole entry C81T/A222G/A223G, form open): as above
Description: as §1, §2, §3, §4

[3] = system: Bacillus stearothermophilus lactate dehydrogenase loop exchange mutant BIG LOOP (loop SEQ ID No: 10); assay: as above; conditions: 25° C., pH 6
Description: as §1, §2, §3, §4

[4] = biological target: T3, Bacillus stearothermophilus lactate dehydrogenase, wild type, SEQ ID NO: 3 (Geobacillus stearothermophilus, UniProt P00344); assay: as above; conditions: estimate, steady state kinetic measurements
T3 construct: made in house; host or cells: E. coli
T3 sequence (P00344 whole entry): as the sequence (P00344 whole entry C81T/A222G/A223G, form open) above, with T81C, G222A, G223A counted along it
Description: as §2, with “For the double glycine mutant enzyme, the first chromatography procedure with oxamate Sepharose was replaced by chromatography on Blue Sepharose -F3GA, otherwise the procedure was essentially the same. All proteins were judged to be greater than 98% pure from the intensity of Coomassie blue staining on an SDS Phast gel (Pharmacia). The yield of protein was usually 0.2 g/l of original broth.” left out
Steady-state measurements were made by following the reduction in absorbance at 340 nm in the NADH/NAD^+ conversion. […] Protein concentration was determined from the absorbance at 280 nm using the value of 0.91 for 1 mg/ml protein in 1 cm path and an Mr of 33,000. […]

[5] = biological target: T4, Bacillus stearothermophilus lactate dehydrogenase mutant MVS/GG (MetValSer for GlnLysPro at 102-105, GlyGly for AlaAla at 235-236) (Geobacillus stearothermophilus, UniProt P00344, A222G/A223G/K87V/P88S/Q86M); assay: Steady state kinetic measurements, reduction of 4-methyl-2-oxo-3-pentenoic acid
T4 construct: made in house; host or cells: E. coli
T4 sequence (P00344 whole entry Q86M/K87V/P88S/A222G/A223G): as the sequence (P00344 whole entry C81T/A222G/A223G, form open) above, with T81C, Q86M, K87V, P88S counted along it
Description: The mutation where alanines at 235,236 are replaced by glycines has been combined with three mutations in the mobile polypeptide loop (residues 98-112), namely […] by methionine, lysine 103 by valine and proline 105 by serine (MVS/GG).
as §3
Reduction of 4-methyl-2-oxo-3-pentenoic acid using MVS/GG (the mutant enzyme formed by substituting MetValSer for GlnLysPro at the 102-105 positions and GlyGly for AlaAla at the 235-236 positions): […]

| SMILES | Km ([1]; +FBP (5 mM)) [mM] | Km ([1]; -FBP) [mM] | Km ([2]; +FBP (5 mM)) [mM] | Km ([2]; -FBP) [mM] | also measured |
| --- | --- | --- | --- | --- | --- |
| CCCCC(=O)C(=O)O [KETO CAPROATE, α-ketocaproate] | 16 | 20 | 25 | 60 | – |
| CC(C)CC(=O)C(=O)O [KETOISO CAPROATE, α-ketoisocaproate] | 20 | 40 | 25 | 30 | – |
| O=C(O)C(=O)CCc1ccccc1 [2-OXO-4-PHENYL BUTANOATE, 2-oxo-4-phenyl butanoic acid] | 4 | 4 | 4 | 4 | kcat ([1]; +FBP (5 mM)): 0.03 s⁻¹; kcat /KM ([1]; +FBP (5 mM)): 7.5 M⁻¹ s⁻¹; kcat ([1]; -FBP): 0.002 s⁻¹; kcat ([2]; +FBP (5 mM)): 0.2 s⁻¹; kcat /KM ([2]; +FBP (5 mM)): 50 M⁻¹ s⁻¹; kcat ([2]; -FBP): 0.01 s⁻¹; kcat /KM ([2]; -FBP): 2.5 M⁻¹ s⁻¹; Km ([3]; +FBP (5 mM)): 7 mM; kcat ([3]; +FBP (5 mM)): 1.0 s⁻¹; kcat /KM ([3]; +FBP (5 mM)): 143 M⁻¹ s⁻¹; Km ([3]; -FBP): 12 mM; kcat ([3]; -FBP): 0.1 s⁻¹ |
| CC(=O)C(=O)O [PYRUVATE, pyruvate] | 0.08 | – | 0.065 | 0.5 | – |
| CC(C)=CC(=O)C(=O)O [4-methyl-2-oxo-3-pentenoic acid] | – | – | – | – | turnover [4]: 0.03 S^-1; turnover [5]: 1.2 S^-1 |
